Results taken from patent US20220274947A1, “NOVEL HETEROARYL-TRIAZOLE COMPOUNDS AS PESTICIDES” (Bayer Aktiengesellschaft, priority 2019, published 2022).

Columns and labels:
Type in all cases: in vivo
[1] = tested on: Diabrotica balteata; assay: Diabrotica balteata spray test; conditions: 168 h, wheat seeds, larvae, after 7 days, read-out: activity (efficacy: 100% means all seedlings have grown up like in the untreated, uninfected control); for pest or weed control at 32 µg/disc, 100 g/ha: application rate 100 g/ha (=32 μg/well)
Protocol: Diabrotica balteata—Spray Test Solvent: 78.0 parts by weight of acetone • • 1.5 parts by weight of dimethylformamide Emulsifier: alkylarylpolyglycol ether
(§1) To produce a suitable preparation of active compound, 1 part by weight of active compound is mixed with the stated amount of solvent, and the concentrate is diluted with water, containing an emulsifier concentration of 1000 ppm, to the desired concentration. Further test concentrations are prepared by dilution with emulsifier containing water.
Soaked wheat seeds (Triticum aestivum) are placed in a multiple well plate filled with agar and some water and are incubated for 1 day to germinate (5 seeds per well). The germinated wheat seeds are sprayed with a test solution containing the desired concentration of the active ingredient. Afterwards each unit is infected with 10-20 larvae of the banded cucumber beetle (Diabrotica balteata).
After 7 days efficacy in % is determined. 100% means all the seedlings have grown up like in the untreated, uninfected control; 0% means none of the seedlings have grown.

[2] = tested on: Myzus persicae; assay: Myzus persicae oral test; conditions: 120 h, read-out: activity (mortality)
Protocol: Myzus persicae—Oral Test Solvent: 100 parts by weight acetone
To produce a suitable preparation of active compound, 1 part by weight of active compound is mixed with the stated amount of solvent, and the concentrate is diluted with water to the desired concentration.
50 μL compound solution is filled in microtiter plates and 150 μL IPL41 insect medium (33%+15% sugar) is added to obtain a total volume of 200 μL per well. Afterwards the plates are sealed with parafilm through which a mixed population of the green peach aphid (Myzus persicae) can suck on the compound preparation.
After 5 days mortality in % is determined. 100% means all aphids have been killed and 0% means none of the aphids have been killed.

[3] = tested on: Ctenocephalides felis; assay: Ctenocephalides felis oral test (CTECFE Oral); conditions: 48 h, read-out: activity (mortality)
Protocol: Ctenocephalides felis—Oral Test (CTECFE Oral) Solvent: dimethyl sulfoxide
To produce a suitable preparation of active compound, 10 mg of active compound are dissolved in 0.5 mL solvent, and the concentrate is diluted with cattle blood to the desired concentration.
Approximately 20 adult unfed cat fleas (Ctenocephalides felis) are placed in flea chambers. The blood chamber, sealed with parafilm on the bottom, are filled with cattle blood supplied with compound solution and placed on the gauze covered top of the flea chamber, so that the fleas are able to suck the blood. The blood chamber is heated to 37° C. whereas the flea chamber is kept at room temperature.
After 2 days mortality in % is determined. 100% means all the fleas have been killed; 0% means none of the fleas have been killed.

[4] = tested on: Spodoptera frugiperda; assay: Spodoptera frugiperda spray test; conditions: in Zea mays, 168 h, read-out: activity (mortality)
Protocol: Spodoptera Fruaiperda—Spray Test
Solvent: 78.0 parts by weight acetone • 1.5 parts by weight dimethylformamide Emulsifier: alkylarylpolyglycol ether
as §1, with “solvents” for “solvent,”, “and” for “and the concentrate”
Maize (Zea mays) leaf sections are sprayed with a preparation of the active ingredient of the desired concentration. Once dry, the leaf sections are infested with fall armyworm larvae (Spodoptera frugiperda).
After 7 days mortality in % is determined. 100% means all caterpillars have been killed and 0% means none of the caterpillars have been killed.

[5] = tested on: Rhipicephalus microplus; assay: Rhipicephalus (Boophilus) microplus injection test (BOOPMI Inj); conditions: 168 h, injection into adult engorged female ticks, egg deposition after 7 days, read-out: activity (efficacy: 100% means all eggs are infertile); for pest or weed control at 0.004 mg: application rate 4 μg/tick; for pest or weed control at 0.02 mg: application rate 20 μg/tick
Protocol: Rhipicephalus (Boophilus) Microplus—Injection Test (BOOPMI Inj)
Solvent: dimethyl sulfoxide
To produce a suitable preparation of active compound, 10 mg of active compound are dissolved in 0.5 mL solvent, and the concentrate is diluted with solvent to the desired concentration.
Five adult engorged female ticks (Rhipicephalus microplus) are injected with 1 μL compound solution into the abdomen. The ticks are transferred into replica plates and incubated in a climate chamber.
After 7 days egg deposition of fertile eggs is monitored. Eggs where fertility is not visible are stored in a climate chamber till hatching after about 42 days. An efficacy of 100% means all eggs are infertile; 0% means all eggs are fertile.

[6] = tested on: Rhipicephalus microplus; assay: Rhipicephalus (Boophilus) microplus in-vitro contact test, larval cattle tick, strain Parkhurst (BOOPMI Cont); conditions: application rate 5 μg/cm^2 (=500 g/ha), tick larvae, after 48 hours, read-out: activity (efficacy: 100% means all larvae are dead or moribund)
Protocol: Rhipicephalus (Boophilus) Microplus—In-Vitro Contact Tests Larval Cattle Tick (Strain Parkhurst, Resistant Against Synthetic Pyrethroids) (BOOPMI Cont)
9 mg compound is solved in 1 mL acetone and diluted with acetone to the desired concentration. 250 μL of the test solution is filled in 25 mL glass test tubes and homogeneously distributed on the inner walls by rotation and tilting on a shaking device (2 h at 30 rpm). With a compound concentration of 900 ppm, an inner surface of 44.7 cm^2 and a homogeneous distribution, a dose of 5 μg/cm^2 is achieved.
After the solvent has evaporated, each test tube is filled with 20-50 cattle tick larvae (Rhipicephalus microplus), closed with a perforated lid and incubated in a horizontal position at 85% relative humidity and 27° C. in an incubator. After 48 hours efficacy is determined. The larvae are patted on the ground of the tubes and negative geotactic behavior is recorded.
An efficacy of 100% means all larvae are dead or moribund; 0% means no larvae are dead or moribund.

[7] = tested on: Musca domestica strain WHO—N; assay: Musca domestica test (MUSCDO surface treatment & contact assay); conditions: surface concentration 20 mg/m^2, glazed tile, exposure 30 minutes, 24 hours after contact, read-out: efficacy (mortality)
Protocol: Musca domestica Test (MUSCDO Surface Treatment & Contact Assay) Solvent: Aceton+2000 ppm rapeseed oil methyl ester (RME)
(§2) In order to produce a sufficient, active ingredient containing solution it is necessary to solve the test compound in the solvent-mix (acetone at 2 mg/ml/RME 2000 ppm). This solution is pipetted onto a glazed tile and after evaporation of the acetone, adult flies of the species Musca domestica strain WHO—N are placed onto the dried surface. The exposure time is 30 minutes. Mortality in percent (%) is determined 24 hours after contact of the insects to the treated surface. 100% mortality means that all tested insects are dead, whereas 0% means that no insect died.

[8] = tested on: Aedes aegypti strain MONHEIM; assay: Aedes aegypti test (AEDSAE surface treatment & contact assay); conditions: exposure 30 minutes, 24 hours after contact, read-out: efficacy (mortality); for mortality at 20 mg/m2: surface concentration 20 mg/m^2, glazed tile; for mortality at 4 mg/m2: surface concentration 4 mg/m^2, glazed tile
Protocol: Aedes aegypti Test (AEDSAE Surface Treatment & Contact Assay) Solvent: Aceton+2000 ppm rapeseed oil methyl ester (RME)
as §2, with “mosquitoes” for “flies”, “Aedes aegypti” for “Musca domestica”, “MONHEIM” for “WHO—N”

[9] = tested on: Rhipicephalus sanguineus; assay: Rhipicephalus sanguineus in-vitro contact test, adult brown dog ticks (RHIPSA Cont); conditions: 48 h, after 48 hours, read-out: activity (efficacy: 100% means all ticks are dead or moribund); for pest or weed control at 1 µg/cm2, 100 g/ha: application rate 1 μg/cm^2 (=100 g/ha); for pest or weed control at 5 µg/cm2, 500 g/ha: application rate 5 μg/cm^2 (=500 g/ha)
Protocol: Rhipicephalus sanguineus-In-Vitro Contact Tests with Adult Brown Dog Ticks ([…] Cont) 9 mg compound is solved in 1 mL acetone and diluted with acetone to the desired concentration. 250 μL of the test solution is filled in 25 mL glass test tubes and homogeneously distributed on the inner walls by rotation and tilting on a shaking device (2 h at 30 rpm). […] After 48 hours efficacy is determined. The ticks are patted on the ground of the tubes and are incubated on a heating plate at 45-50° C. for at most 5 minutes. Immotile or uncoordinated moving ticks, which are not able to escape the heat by climbing upwards, are marked as dead or moribund.

CC(NC(=O)c1cc(C(F)(F)F)cc(C(F)(F)F)c1)c1nc(Br)nn1-c1ccc(C#N)cn1 (racemic) [I-48, 3,5-di(trifluoromethyl)-N-{1-[3-bromo-1-(3-cyano-pyridin-6-yl)-1H-1,2,4-triazol-5-yl]ethyl}-benzamide]
pest or weed control at 32 µg/disc, 100 g/ha [1]: 100%
mortality at 4 ppm [2]: 90%
mortality at 100 ppm [3]: 100%
mortality at 100 g/ha [4]: 100%
pest or weed control at 0.004 mg [5]: 100%
pest or weed control at 5 µg/cm2 [6]: 100%

COc1nc([C@H](C)NC(=O)c2cc(Cl)cc(C(F)(F)F)c2)n(-c2ccc(C#N)cn2)n1 [I-10, 3-chloro-N-{(1S)-1-[1-(5-cyanopyridin-2-yl)-3-methoxy-1H-1,2,4-triazol-5-yl]ethyl}-5-(trifluoromethyl)benzamide]
pest or weed control at 32 µg/disc, 100 g/ha [1]: 100%
pest or weed control at 160 µg/disc, 500 g/ha ([1]; application rate 500 g/ha (=160 μg/well)): 100%
mortality at 20 mg/m2 [7]: 80 to 100%
mortality at 4 ppm [2]: 100%
mortality at 100 ppm [3]: 100%
mortality at 100 g/ha [4]: 100%
mortality at 500 g/ha [4]: 100%
pest or weed control at 0.004 mg [5]: 100%
pest or weed control at 0.02 mg [5]: 100%
pest or weed control at 5 µg/cm2 [6]: 100%

CC(C)c1nc([C@H](C)NC(=O)c2cncc(Br)c2)n(-c2ccc(C#N)cn2)n1 [I-27]
mortality at 20 mg/m2 [8]: 80 to 100%
pest or weed control at 1 µg/cm2, 100 g/ha [9]: 100%
pest or weed control at 5 µg/cm2, 500 g/ha [9]: 100%
mortality at 100 ppm [3]: 100%
pest or weed control at 0.004 mg [5]: 100%
pest or weed control at 0.02 mg [5]: 100%
pest or weed control at 5 µg/cm2 [6]: 90%

C[C@H](NC(=O)c1cc(Br)cc(C(F)(F)F)c1)c1nc(C2CC2)nn1-c1ccc(C#N)cn1 [I-31]
pest or weed control at 32 µg/disc, 100 g/ha [1]: 100%
mortality at 20 mg/m2 [7]: 80 to 100%
mortality at 4 ppm [2]: 100%
pest or weed control at 5 µg/cm2, 500 g/ha [9]: 80%
mortality at 100 ppm [3]: 100%
pest or weed control at 0.004 mg [5]: 100%
pest or weed control at 0.02 mg [5]: 100%
pest or weed control at 5 µg/cm2 [6]: 100%

C[C@H](NC(=O)c1cc(Cl)cc(Br)c1)c1nc(C2CC2)nn1-c1ccc(C#N)cn1 [I-32]
pest or weed control at 32 µg/disc, 100 g/ha [1]: 100%
mortality at 4 ppm [2]: 100%
pest or weed control at 1 µg/cm2, 100 g/ha [9]: 80%
pest or weed control at 5 µg/cm2, 500 g/ha [9]: 100%
mortality at 100 ppm [3]: 100%
mortality at 100 g/ha [4]: 100%
pest or weed control at 0.004 mg [5]: 100%
pest or weed control at 0.02 mg [5]: 100%
pest or weed control at 5 µg/cm2 [6]: 100%

C[C@H](NC(=O)c1cc(Cl)cc(OC(F)F)c1)c1nc(C2CC2)nn1-c1ccc(C#N)cn1 [I-34]
pest or weed control at 32 µg/disc, 100 g/ha [1]: 100%
mortality at 20 mg/m2 [7]: 80 to 100%
mortality at 100 ppm [3]: 100%
mortality at 100 g/ha [4]: 100%
pest or weed control at 0.004 mg [5]: 100%
pest or weed control at 0.02 mg [5]: 100%
pest or weed control at 5 µg/cm2 [6]: 90%

C[C@H](NC(=O)c1cc(Br)cc(C#N)c1)c1nc(C2CC2)nn1-c1ccc(C#N)cn1 [I-35]
pest or weed control at 32 µg/disc, 100 g/ha [1]: 100%
mortality at 20 mg/m2 [7]: 80 to 100%
mortality at 20 mg/m2 [8]: 80 to 100%
mortality at 100 ppm [3]: 100%
pest or weed control at 0.004 mg [5]: 100%
pest or weed control at 0.02 mg [5]: 100%
pest or weed control at 5 µg/cm2 [6]: 100%

Cc1nc([C@H](C)NC(=O)c2cncc(Br)c2)n(-c2ccc(C#N)cn2)n1 [II-49]
pest or weed control at 32 µg/disc, 100 g/ha [1]: 100%
mortality at 4 mg/m2 [8]: 80 to 100%
pest or weed control at 5 µg/cm2, 500 g/ha [9]: 100%
mortality at 100 ppm [3]: 100%
pest or weed control at 0.004 mg [5]: 100%
pest or weed control at 0.02 mg [5]: 100%
pest or weed control at 5 µg/cm2 [6]: 100%

CC[C@H](NC(=O)c1cc(Cl)cc(C(F)(F)F)c1)c1ncnn1-c1ncc(OC(F)F)cn1 [II-64]
pest or weed control at 32 µg/disc, 100 g/ha [1]: 100%
mortality at 20 mg/m2 [8]: 80 to 100%
pest or weed control at 5 µg/cm2, 500 g/ha [9]: 80%
mortality at 100 ppm [3]: 100%
mortality at 100 g/ha [4]: 100%
pest or weed control at 0.004 mg [5]: 100%
pest or weed control at 0.02 mg [5]: 100%
pest or weed control at 5 µg/cm2 [6]: 100%

C[C@H](NC(=O)c1cc(Br)c(F)c(Br)c1)c1ncnn1-c1ccc(C#N)cn1 [II-82]
pest or weed control at 32 µg/disc, 100 g/ha [1]: 80%
mortality at 4 mg/m2 [8]: 80 to 100%
mortality at 20 mg/m2 [8]: 80 to 100%
pest or weed control at 1 µg/cm2, 100 g/ha [9]: 80%
pest or weed control at 5 µg/cm2, 500 g/ha [9]: 80%
mortality at 100 ppm [3]: 100%
mortality at 100 g/ha [4]: 100%
pest or weed control at 0.004 mg [5]: 100%
pest or weed control at 5 µg/cm2 [6]: 100%
